# Experimental data taken from patent publication US11028427B2, “Systems and methods for proteomic activity analysis using DNA-encoded probes” (priority 2015, dated 2021).
# Assays:
# [1] = system: caspase 3 in lysates from HeLa cells; test: Caspase 3 activity in HeLa cell lysates with DNA-encoded probe, qPCR; format: cell-based; conditions: HeLa cell lysates with vs without staurosporine treatment to induce apoptosis
# PKA = PKA (Homo sapiens, UniProt P17612); test: PKA peptide substrate kcat/Km comparison; format: biochemical
# Text: This extracellular PKA (ecPKA) and other ectokinase activities have recently garnered interest as useful cancer markers. However, the low levels of activity present challenges for detection using conventional methods. Conventional techniques to detect ecPKA in patient samples have relied exclusively on radioactive assays; however, exposure to radioactivity is problematic for those performing the assays, as is the cumbersome amount of paperwork and red tape associated obtaining approval for the use of radioactive assays and the disposal of radioactive waste. However, the PKA level in the serum of healthy individuals has been estimated at about 3 pM, which is below other conventional assay detection limits and, thus, problematic. Using the techniques described herein, a DNA-peptide substrate probe was synthesized based on the highly specific protein inhibitor for PKA—protein kinase inhibitor (PKI)—with the sequence […]. This peptide has about a 100-fold greater kcat/Km than the RRFSL peptide for PKA and provided a significant increase (e.g., a 100-fold) in assay sensitivity. Accordingly, the method 300 for detecting proteomic activity using DNA-encoded probes could provide sensitivity for detection of PKA activity in the bloodstream of a subject to accurately identify upregulation, for example, of ecPKA, which can be indicative of cancer.
# biotinylated B. CAII = biotinylated B. CAII (Bos taurus, UniProt P00921); test: Enrichment of ligands via crosslinking (SDS + stringent washes), qPCR; format: binding, bovine; conditions: 1 μM CAII
# BSA [2] = target: T1, BSA (Bos taurus, UniProt P02769); test: Crosslinking to BSA in reactions lacking the target protein, SDS-PAGE; format: binding, bovine; conditions: reactive group phenyl azide (5); reactions that lacked the target protein
# Experimental: (§1) This crosslinking likely reflects the propensity of BSA to bind to hydrophobic small molecules and potentially to sulfonamides specifically. Thus, this labeling may still be considered ligand-dependent.
# Photocrosslinking was performed as described above, except the system was allowed to incubate with both the ligand-ssDNA and reactive group-ssDNA′ for 30 minutes at RT. Irradiation was completed by exposure to a 4W 356 nm UV light source at 4° C. for 1 hour, quenched by the addition 6×SDS-loading buffer, and directly analyzed by SDS-PAGE. Gels were imaged immediately for FAM fluorescence and then Coomassie stained.
# BSA [3] = target: T1, BSA; test: Bio-layer interferometry analysis of binding to BSA; parameters: species or system bovine; conditions: BSA at 10 μM; data not shown
# Experimental: as §1
# DNA conjugates were purified on a Varian Pro Star HPLC system and analytical analysis on an Agilent 1100 series HPLC system, both using Agilent Microsorb-MV 300-5 C18 250×4.6 mm reverse phase columns. Analytical separations were performed using 100 mM triethylammonium acetate (TEAA), pH 5.5 in water (A) or 100 mM triethylammonium acetate in 90% MeCN (B) with a linear gradient from 5-60% B over 22 minutes. Purifications were performed using the previous or 0.75% (v/v) 1,1,1,3,3,3-hexafluoropropan-2-ol, and 10 μM EDTA to pH 7.0 with triethylamine in water (A) or 90% MeOH (B) with a linear gradient from 5-50% B over 22 minutes. ESI-MS analysis was completed using an ABSciex 4500 QTrap from fractions collected from HFIP-based HPLC purifications. MALDI analysis was completed on an Applied Biosystems Voyager DE PRO instrument operated by the Purdue University Campus-Wide Mass Spectrometry Center after TEAA-based purification, ethanol precipitation, and ZipTip cleanup. On-DNA ligand dissociation constants were determined using a ForteBio Octet Red384. […] All gel images were recorded by a GE Healthcare Typhoon Trio+ with gel band quantifications determined using ImageJ software.
# [4] = target: Biotinylated B. CAII immobilized on magnetic beads (Bos taurus, UniProt P00921); test: Enrichment of ligands via solid-phase affinity pulldown, qPCR; format: binding, bovine; conditions: for Enrichment (fold change relative to non-ligand (Bz) DNA construct): Solid Phase Affinity Pull down
# Text: To prepare constructs for test selections, two CAII ligands and a non-ligand control (FIG. 17) were synthesized on a 5′-amine-modified, 40-mer oligonucleotide, which contained a PEG spacer between two 20-mer sequences as previously described. Using these oligos as primers in a PCR with unique 100-mer templates gave 100-mer dsDNA products tethered to the ligand-containing 20-mer ssDNA. DNA templates assigned to each ligand 1302 contained a unique, internal 20-mer sequence for use as a specific priming site to enable qPCR analysis of ligand enrichments. A mock library was then prepared by mixing ligand constructs GL-CBS and D-CBS at 0.1 nM each with an excess of control, non-ligand construct (Bz) (10 nM).
# Using this mixture, test selections were conducted using the crosslinking approach with the sulfonyl fluoride oligo or using a traditional solid-phase selection with CAII immobilized on magnetic beads.
# Biotinylated B. CAII (1.2× based on magnetic bead capacity) was immobilized onto pre-washed Nanolink Streptavidin Magnetic Beads by incubating in 0.1 M sodium phosphate, pH 8.0, 0.25 M NaCl, 0.02% (v/v) Tween-20, 1.0 mg/mL tRNA, 10 μM BSA for 2 h at RT. The magnetic beads were then separated and supernatant removed. The CAII-bound magnetic beads were then washed with the above buffer three times and a premix of ligand-dsDNA and non-ligand-dsDNA (0.1 nM and 10 nM, respectively) in the above buffer (in the appropriate volume to give the desired effective protein concentration) was added and incubated at RT for 1.5 h. The magnetic beads were then separated and DNA supernatant removed. The CAII-bound magnetic beads were then washed with the above buffer five times, maintaining the same effective protein concentration in each wash. After the final wash, the magnetic beads were suspended in […] and heated at 95° C. for 5 min. qPCR analysis of the premix and magnetic bead elution was completed by comparison of CT standard curves of identical dsDNA constructs.
# Chain of Biotinylated B. CAII immobilized on magnetic beads (P00921 whole entry): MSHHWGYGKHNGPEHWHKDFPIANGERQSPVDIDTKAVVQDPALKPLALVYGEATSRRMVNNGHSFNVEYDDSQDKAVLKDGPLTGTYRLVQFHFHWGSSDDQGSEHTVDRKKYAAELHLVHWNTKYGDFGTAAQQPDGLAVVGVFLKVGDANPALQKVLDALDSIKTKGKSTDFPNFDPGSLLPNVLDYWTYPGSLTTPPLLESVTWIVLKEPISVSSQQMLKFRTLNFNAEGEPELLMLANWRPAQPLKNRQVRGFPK
# T1 sequence (P02769 25-607): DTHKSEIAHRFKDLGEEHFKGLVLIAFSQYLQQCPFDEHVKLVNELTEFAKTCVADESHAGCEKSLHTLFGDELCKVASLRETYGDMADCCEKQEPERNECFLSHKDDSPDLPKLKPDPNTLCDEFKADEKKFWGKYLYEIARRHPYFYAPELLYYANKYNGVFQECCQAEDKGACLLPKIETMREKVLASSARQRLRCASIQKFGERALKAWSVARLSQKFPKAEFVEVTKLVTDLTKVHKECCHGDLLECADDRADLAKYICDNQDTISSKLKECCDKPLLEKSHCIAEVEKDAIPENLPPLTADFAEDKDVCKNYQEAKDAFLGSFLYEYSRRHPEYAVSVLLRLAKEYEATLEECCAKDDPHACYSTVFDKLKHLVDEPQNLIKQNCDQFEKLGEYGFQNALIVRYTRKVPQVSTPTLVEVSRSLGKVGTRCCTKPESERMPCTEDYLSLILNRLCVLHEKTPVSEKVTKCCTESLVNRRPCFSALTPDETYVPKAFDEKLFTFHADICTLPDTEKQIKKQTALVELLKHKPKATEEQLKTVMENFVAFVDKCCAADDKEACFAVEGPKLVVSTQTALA
# Chain of biotinylated B. CAII (P00921 whole entry): as the sequence (P00921 whole entry) above
compound,measurement,setting,value
CN[C@@H]1C[C@H]2O[C@@](C)([C@@H]1OC)n1c3ccccc3c3c4c(c5c6ccccc6n2c5c31)C(=O)NC4 [staurosporine],Increase in caspase activity,[1],~6 fold
GRTGRRNSI,kcat/Km relative to the RRFSL peptide,PKA,~100 fold
glycylleucine carboxybenzylsulfonamide [GL-CBS],Enrichment (fold change relative to non-ligand (Bz) DNA construct),biotinylated B. CAII; Without X-linking (3'-OH ssDNA),22 fold
same,Enrichment (fold change in concentration of ligand-DNA construct relative to non-ligand (Bz) DNA construct),biotinylated B. CAII; X-linking with 3 (sulfonyl fluoride),"17,000 fold"
same,BSA crosslinking,BSA [2],significant levels of BSA crosslinking
same,Binding to BSA,BSA [3],did not indicate binding
same,Overall enrichment in solid-phase selection compared to crosslinking selection (lower),[4]; 1 μM CAII,20 fold
same,Recovery in solid-phase selection compared to crosslinking selection (greater),[4]; 1 μM CAII,approximately 5 fold
same,Enrichment (fold change relative to non-ligand (Bz) DNA construct),[4]; 1 μM CAII,720 fold
same,Enrichment (fold change relative to non-ligand (Bz) DNA construct),[4]; 17 μM CAII (estimated),610 fold
